PubChem BioAssay AID1963965 (Molecular Pharmacology Branch, DTP, NCI, 2024)
One block for each molecule: values may come before it.

Test system: 996289-038-R-J1-PDC spheroid viability
Test: Anticancer human tumor 996289-038-R-J1-PDC patient-derived colon adenocarcinoma cell line growth inhibition [PI3K]
Details: spheroids with HUVEC and MSC; for IC50: curve of first compound; for viability, T/C: stronger effect = lower value
Method in brief: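 Viability of mixed-cell spheroids was determined after exposure to pairwise combinations, one partner being inavolisib, alpelisib, duvelisib or copanlisib. Highest tested concentration matched clinical Cmax where known and 10 microM where not, descending in half-log steps.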

[1] = second compound 0.0316 µM, first compound 0.0316 µM
[2] = second compound 0.0316 µM, first compound 0.1 µM
[3] = second compound 0.1 µM, first compound 0.0316 µM
[4] = second compound 0.1 µM, first compound 0.1 µM
[5] = second compound 0.316 µM, first compound 0.0316 µM
[6] = second compound 0.316 µM, first compound 0.1 µM
[7] = second compound 1 µM, first compound 0.0316 µM
[8] = second compound 1 µM, first compound 0.1 µM
[9] = second compound 3.16 µM, first compound 0.0316 µM
[10] = second compound 3.16 µM, first compound 0.1 µM
[11] = second compound 10 µM, first compound 0.0316 µM
[12] = second compound 10 µM, first compound 0.1 µM
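Note: spheroids exposed to compounds for seven days before viability read.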
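Throughout, for viability, T/C: luminescence used as a proxy for viable cell amount; percent viability relative to DMSO vehicle control as 100%.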

IC50 (second compound 0.0316 µM): > 10000 nM
IC50 (second compound 0.1 µM): > 10000 nM
IC50 (second compound 0.316 µM): > 10000 nM
IC50 (second compound 1 µM): > 10000 nM
IC50 (second compound 3.16 µM): > 10000 nM
IC50 (second compound 10 µM): < 31.6 nM
SMILES: C[C@@H](NC(=O)c1ncnc(N)c1Cl)c1ncc(C(=O)Nc2cc(C(F)(F)F)c(Cl)cn2)s1 + Cc1nc(NC(=O)N2CCCC2C(N)=O)sc1-c1ccnc(C(C)(C)C(F)(F)F)c1
viability, T/C [1]: 89.5%
viability, T/C [2]: 89.8%
viability, T/C (second compound 0.0316 µM, first compound 0.316 µM): 124%
viability, T/C (second compound 0.0316 µM, first compound 1 µM): 114%
viability, T/C (second compound 0.0316 µM, first compound 3.16 µM): 113%
viability, T/C (second compound 0.0316 µM, first compound 10 µM): 128%
viability, T/C [3]: 99.3%
viability, T/C [4]: 100%
viability, T/C (second compound 0.1 µM, first compound 0.316 µM): 103%
viability, T/C (second compound 0.1 µM, first compound 1 µM): 104%
viability, T/C (second compound 0.1 µM, first compound 3.16 µM): 109%
viability, T/C (second compound 0.1 µM, first compound 10 µM): 105%
viability, T/C [5]: 80.5%
viability, T/C [6]: 88.6%
viability, T/C (second compound 0.316 µM, first compound 0.316 µM): 90.8%
viability, T/C (second compound 0.316 µM, first compound 1 µM): 93.9%
viability, T/C (second compound 0.316 µM, first compound 3.16 µM): 109%
viability, T/C (second compound 0.316 µM, first compound 10 µM): 92.4%
viability, T/C [7]: 64.3%
viability, T/C [8]: 72.8%
viability, T/C (second compound 1 µM, first compound 0.316 µM): 73.5%
viability, T/C (second compound 1 µM, first compound 1 µM): 81.1%
viability, T/C (second compound 1 µM, first compound 3.16 µM): 102%
viability, T/C (second compound 1 µM, first compound 10 µM): 70.8%
viability, T/C [9]: 62.1%
viability, T/C [10]: 68.3%
viability, T/C (second compound 3.16 µM, first compound 0.316 µM): 60.3%
viability, T/C (second compound 3.16 µM, first compound 1 µM): 67.7%
viability, T/C (second compound 3.16 µM, first compound 3.16 µM): 68.7%
viability, T/C (second compound 3.16 µM, first compound 10 µM): 54.3%
viability, T/C [11]: 40.6%
viability, T/C [12]: 47.1%
viability, T/C (second compound 10 µM, first compound 0.316 µM): 54.3%
viability, T/C (second compound 10 µM, first compound 1 µM): 44.3%
viability, T/C (second compound 10 µM, first compound 3.16 µM): 46.9%
viability, T/C (second compound 10 µM, first compound 10 µM): 39.9%

IC50 (second compound 0.0316 µM): > 100 nM
IC50 (second compound 0.1 µM): > 100 nM
IC50 (second compound 0.316 µM): > 100 nM
IC50 (second compound 1 µM): > 100 nM
IC50 (second compound 3.16 µM): > 100 nM
IC50 (second compound 10 µM): < 0.316 nM
SMILES: Cn1ncnc1[C@H]1c2n[nH]c(=O)c3cc(F)cc(c23)N[C@@H]1c1ccc(F)cc1 + Cc1nc(NC(=O)N2CCCC2C(N)=O)sc1-c1ccnc(C(C)(C)C(F)(F)F)c1
viability, T/C (second compound 0.0316 µM, first compound 0.000316 µM): 120%
viability, T/C (second compound 0.0316 µM, first compound 0.001 µM): 117%
viability, T/C (second compound 0.0316 µM, first compound 0.00316 µM): 97.9%
viability, T/C (second compound 0.0316 µM, first compound 0.01 µM): 90.3%
viability, T/C [1]: 99.9%
viability, T/C [2]: 99%
viability, T/C (second compound 0.1 µM, first compound 0.000316 µM): 113%
viability, T/C (second compound 0.1 µM, first compound 0.001 µM): 101%
viability, T/C (second compound 0.1 µM, first compound 0.00316 µM): 79.5%
viability, T/C (second compound 0.1 µM, first compound 0.01 µM): 84.9%
viability, T/C [3]: 91.2%
viability, T/C [4]: 83.2%
viability, T/C (second compound 0.316 µM, first compound 0.000316 µM): 88.3%
viability, T/C (second compound 0.316 µM, first compound 0.001 µM): 85%
viability, T/C (second compound 0.316 µM, first compound 0.00316 µM): 84.1%
viability, T/C (second compound 0.316 µM, first compound 0.01 µM): 89.8%
viability, T/C [5]: 90.8%
viability, T/C [6]: 77.3%
viability, T/C (second compound 1 µM, first compound 0.000316 µM): 76.6%
viability, T/C (second compound 1 µM, first compound 0.001 µM): 70.9%
viability, T/C (second compound 1 µM, first compound 0.00316 µM): 78.5%
viability, T/C (second compound 1 µM, first compound 0.01 µM): 77.9%
viability, T/C [7]: 76.7%
viability, T/C [8]: 68.3%
viability, T/C (second compound 3.16 µM, first compound 0.000316 µM): 53.7%
viability, T/C (second compound 3.16 µM, first compound 0.001 µM): 69.4%
viability, T/C (second compound 3.16 µM, first compound 0.00316 µM): 64%
viability, T/C (second compound 3.16 µM, first compound 0.01 µM): 61.1%
viability, T/C [9]: 62%
viability, T/C [10]: 58.4%
viability, T/C (second compound 10 µM, first compound 0.000316 µM): 42.5%
viability, T/C (second compound 10 µM, first compound 0.001 µM): 51.5%
viability, T/C (second compound 10 µM, first compound 0.00316 µM): 49.5%
viability, T/C (second compound 10 µM, first compound 0.01 µM): 44.2%
viability, T/C [11]: 55.1%
viability, T/C [12]: 40.8%
